Where two headings read alike, the source gives them in different places.

These results are taken from article PMC10819458, “Using Pharmacokinetic–Pharmacodynamic Modeling to Study the Main Active Substances of the Anticancer Effect in Mice from Panax ginseng–Ophiopogon japonicus” (Molecules, 2024).

This data set is described as follows: Lung-tissue pharmacokinetics of PG–OJ components in tumor-bearing mice (UPLC–MS/MS). The format is in vivo, BALB/c nude male mice. To be noted: for MRT last: read-out: MRT(0–t) (converted). An excerpt:
This study employed Ultra-Performance Liquid Chromatography–Mass Spectrometry (UPLC–MS/MS) to examine the pharmacokinetic properties of 20 bioactive components in a cell-derived xenograft (CDX) model following oral administration of a 10.2 g/kg PG–OJ extract.
Healthy BALB/c nude male mice (weight: 18–21 g) were purchased from Beijing Huafukang Biotechnology Co., Ltd. (Beijing, China, License Number: SCXK (Jing) 2021-0006). After 3 days of acclimatization, the mice were randomly divided into the control group (CG), model group (MG), and the combined-administration group of P. ginseng and O. japonicus (HM1-HM13) ([…], four-fold clinical-equivalent doses). Subsequently, except for the CG, 0.2 mL (approximately 2 × 10^7 cells) of A549 cell suspension was aspirated with a 1 mL syringe and injected into the right axillary fossa of the model group and drug-administration-group mice. The control-group mice were injected with an equal volume of PBS at the same location. The tumor diameter was measured daily using a caliper. The model was successful when the tumor diameter > 3 mm. The combined-administration group of P. ginseng and O. japonicus was given the corresponding drug orally, once a day, with 0.2 mL/mouse each time. The control group and the model group mice were given the same volume of distilled water, continuously orally for 21 days. During this period, the body weight and tumor volume of the mice were recorded. At the end of the last administration, the mice were […] 0.083, 0.167, 0.25, 0.5, 0.75, 1, 2, 3, 4, 6, 8, 12, 24 h later. After injecting 0.1% pentobarbital sodium, blood was collected from the eye-socket vein, the mice were decapitated, and the tumor and lung tissues were carefully removed.
After homogenizing 50 mg of right-lung-tissue sample, 2 mL of acetonitrile was added to precipitate proteins. The mixture was oscillated for 2 min and then centrifuged for 10 min (12,000 rpm, 4 °C). The supernatant from the new centrifuge tube was collected and dried with nitrogen at room temperature. Finally, the supernatant was redissolved in 50 μL of acetonitrile solution containing 0.1% formic acid. After oscillating for 1 min, another centrifugation step was performed, and the resulting supernatant was used for analysis.
Samples were analyzed on the Vanquish UPLC System (Thermo, Waltham, MA, USA). The Agilent C18 column (4.6 × 150 mm, 4 μm, PN:693970-902T) was selected. The mobile phase was composed of 0.1% formic acid aqueous solution (A) and 0.1% formic acid acetonitrile solution (B). The procedure of gradient elution was as follows: 0–10 min, 95–75% A; 10–25 min, 75–45% A; 25–40 min, 45–30% A; 40–50 min, 30–5% A; 55–55.1 min, 5–95% A; 55.1–60 min, 95% A. The column temperature was set to 30 °C with the flow rate of 0.3 mL/min and the injection volume of 3.0 μL. The mass-spectrometry detection with negative-ion mode was carried out using an Orbitrap Exploris 120 Mass Spectrometer (Thermo, Waltham, MA, USA) and Electrospray ionization (ESI). The sheath-gas-flow rate was […] and the auxiliary-gas-flow rate was […]. The capillary temperature was 325 °C, and the resolution was 120,000 in full scan mode with the mass scan range of 80~1500 m/z. The secondary cracking was performed with HCD at a collision voltage of 30 eV, and unnecessary MS/MS information was removed using the dynamic exclusion method.

Where [1] appears, read: male, BALB/c nude, mouse, in vivo, po.
Where [2] appears, read: male, BALB/c nude, mouse, in vivo, po, Tmax.
The mark [3] stands for this setting: lung tissue, A549 tumor-bearing mice, intragastric PG–OJ extract 10.2 g/kg (6.8 g/kg elsewhere in the source), mean ± SD, n = 6.
Where [4] appears, read: lung tissue, oral PG–OJ extract, in words.
Setting [5] is: male, BALB/c nude, mouse, po, lung tissue, A549 tumor-bearing mice, intragastric PG–OJ extract 10.2 g/kg (6.8 g/kg elsewhere in the source), mean ± SD, n = 6, read-out: Cmax.
The mark [6] stands for this setting: male, BALB/c nude, mouse, po, lung tissue, A549 tumor-bearing mice, intragastric PG–OJ extract 10.2 g/kg (6.8 g/kg elsewhere in the source), mean ± SD, n = 6.
The mark [7] stands for this setting: male, BALB/c nude, mouse, po, lung tissue, A549 tumor-bearing mice, intragastric PG–OJ extract 10.2 g/kg (6.8 g/kg elsewhere in the source), mean ± SD, n = 6, read-out: T1/2.

Compound `CC(C)=CCC[C@](C)(O)[C@H]1CC[C@]2(C)[C@@H]1[C@H](O)C[C@@H]1[C@@]3(C)CC[C@H](O)C(C)(C)[C@@H]3[C@@H](O[C@@H]3O[C@H](CO)[C@@H](O)[C@H](O)[C@H]3O[C@@H]3O[C@H](CO)[C@@H](O)[C@H](O)[C@H]3O)C[C@]12C` [Ginsenoside Rf] came in with a half-life under setting [1] of 1.28 ± 0.0173 h. Also, under setting [2], the Tmax was 0.25 h. The “time to reach maximum concentration (Cmax) after administration” value (“time to reach maximum concentration” below) (mouse, in vivo, po) is listed as no more than 15 min.

With `CC(C)=CCC[C@](C)(O)[C@H]1CC[C@]2(C)[C@@H]1[C@H](O)C[C@@H]1[C@@]3(C)CC[C@H](O)C(C)(C)[C@@H]3[C@@H](O[C@@H]3O[C@H](CO)[C@@H](O)[C@H](O)[C@H]3O[C@@H]3O[C@@H](C)[C@H](O)[C@@H](O)[C@H]3O)C[C@]12C` [Ginsenoside Rg2], the half-life under setting [1] worked out at 3.58 ± 0.103 h. Moreover, the Tmax under setting [2] is 0.25 h. In addition, under “mouse, in vivo, po”, the “AUC(0–∞) compared with other components” value was “significantly higher than those of other components” and the “time to reach maximum concentration” value is no more than 15 min.

With `Cc1c(O)c(C)c2c(c1O)C(=O)[C@H](Cc1ccc3c(c1)OCO3)CO2` [Methylophiopogonanone A], where the note is “mouse, in vivo, po”, the T1/2 came out at 20.3208 ± 6.0457 h and the Tmax came out at 2.5 ± 0 h.

Consider 24(R)-pseudoginsenoside F11, for which, where the note is “mouse, in vivo, po”, the T1/2 is 3.786 ± 0.2045 h, the Tmax turned out to be 0.25 ± 0 h and the “time to reach maximum concentration” value is recorded as no more than 15 min.

A word on the Cmax: it is the maximum level reached in the sampled fluid or tissue. For `CC(C)=CCC[C@](C)(O[C@@H]1O[C@H](CO[C@@H]2O[C@H](CO)[C@@H](O)[C@H](O)[C@H]2O)[C@@H](O)[C@H](O)[C@H]1O)[C@H]1CC[C@]2(C)[C@@H]1[C@H](O)C[C@@H]1[C@@]3(C)CC[C@H](O[C@@H]4O[C@H](CO)[C@@H](O)[C@H](O)[C@H]4O[C@@H]4O[C@H](CO)[C@@H](O)[C@H](O)[C@H]4O)C(C)(C)[C@@H]3CC[C@]12C` [Ginsenoside Rb1], the “AUC(0–t)” value under setting [3] was 227,245.91 ± 5460.47 ng/g·min. Under setting [3], the “AUC(0–∞)” value is on record as 283,948.70 ± 17,261.40 ng/g·min. For the same compound, the “AUC(0–∞) compared with other components” value under setting [4] is given as “significantly higher than those of other components”. Further, the Tmax was 12 h (male, BALB/c nude, mouse, lung tissue, po, 10.2 g/kg, lung tissue, A549 tumor-bearing mice, intragastric PG–OJ extract 10.2 g/kg (6.8 g/kg elsewhere in the source), mean ± SD, n = 6, read-out: Tmax (converted)) and 12 h (male, BALB/c nude, mouse, lung tissue, po, 10.2 g/kg, lung tissue, oral PG–OJ extract, read-out: time to reach peak concentration). Further, the Cmax under setting [5] was determined as 441 ± 15.7 ng/g. In addition, under setting [6], the MRT last is 11.5 h. Also, the half-life under setting [7] turned out to be 32.9 ± 3.15 h.

In the case of `CC(C)=CCC[C@](C)(O[C@@H]1O[C@H](CO)[C@@H](O)[C@H](O)[C@H]1O)[C@H]1CC[C@]2(C)[C@@H]1[C@H](O)C[C@@H]1[C@@]3(C)CC[C@H](O[C@@H]4O[C@H](CO)[C@@H](O)[C@H](O)[C@H]4O[C@@H]4O[C@H](CO)[C@@H](O)[C@H](O)[C@H]4O)C(C)(C)[C@@H]3CC[C@]12C` [Ginsenoside Rd], under setting [3], the “AUC(0–t)” value is recorded as 46,163.94 ± 1033.00 ng/g·min and the “AUC(0–∞)” value is reported as 56,296.57 ± 6663.99 ng/g·min. Moreover, the “AUC(0–∞) compared with other components” value under setting [4] is reported as “significantly higher than those of other components”. Under setting [5], the peak concentration (Cmax) stood at 83 ± 2.11 ng/g. In addition, the MRT last under setting [6] is 11.1 h. In addition, the half-life under setting [7] is 16.2 ± 3.68 h.

`CC(C)=CCC[C@](C)(O)[C@H]1CC[C@]2(C)[C@@H]1[C@H](O)C[C@@H]1[C@@]3(C)CC[C@H](O[C@@H]4O[C@H](CO)[C@@H](O)[C@H](O)[C@H]4O[C@@H]4O[C@H](CO)[C@@H](O)[C@H](O)[C@H]4O)C(C)(C)[C@@H]3CC[C@]12C` [Ginsenoside Rg3]: under setting [3], the “AUC(0–t)” value came to 1879.87 ± 53.24 ng·min/g, the “AUC(0–∞)” value was 14,133.43 ± 3134.88 ng/g·min, the Cmax is given as 4.75 ± 0.12 ng/g and the “MRT(0–t)” value is 3.8352 ± 0.0448 h. Under setting [3], the T1/2 stood at 39.6943 ± 9.3722 h and the Tmax was determined as 0.0833 ± 0 h.

As to `CC(C)(O)[C@H]1CC[C@@](C)([C@H]2CC[C@]3(C)[C@@H]2[C@H](O)C[C@@H]2[C@@]4(C)CC[C@H](O)C(C)(C)[C@@H]4[C@@H](O[C@@H]4O[C@H](CO)[C@@H](O)[C@H](O)[C@H]4O)C[C@]23C)O1` [Pseudoginsenoside RT5], where the note is “mouse, in vivo, po”, the T1/2 was 10.572 ± 2.3632 h, the Tmax was determined as 0.25 ± 0 h, the half-life came out at 10.6 h and the “time to reach maximum concentration” value is on record as no more than 15 min.

Consider `CC(C)=CCC[C@](C)(O[C@@H]1O[C@H](CO)[C@@H](O)[C@H](O)[C@H]1O)[C@H]1CC[C@]2(C)[C@@H]1[C@H](O)C[C@@H]1[C@@]3(C)CC[C@H](O[C@@H]4O[C@H](CO)[C@@H](O)[C@H](O)[C@H]4O)C(C)(C)[C@@H]3CC[C@]12C` [Ginsenoside F2], for which the half-life under setting [1] is 5.83 ± 0.269 h. For the same compound, the Tmax under setting [2] is 1 h. Moreover, for the setting “mouse, in vivo, po”, the “AUC(0–∞) compared with other components” value is reported as “significantly higher than those of other components”.

For the compound `CC1(C)CC[C@]2(C(=O)O[C@@H]3O[C@H](CO)[C@@H](O)[C@H](O)[C@H]3O)CC[C@]3(C)C(=CC[C@@H]4[C@@]5(C)CC[C@H](O[C@@H]6O[C@H](C(=O)O)[C@@H](O)[C@H](O)[C@H]6O[C@@H]6O[C@H](CO)[C@@H](O)[C@H](O)[C@H]6O)C(C)(C)[C@@H]5CC[C@]43C)[C@@H]2C1` [Ginsenoside Ro], under “mouse, in vivo, po”, the T1/2 is 4.2077 ± 0.198 h, the Tmax was determined as 0.2083 ± 0.0482 h and the “time to reach maximum concentration” value is no more than 15 min.

As to `COc1ccc(C[C@@H]2COc3c(C)c(O)c(C)c(O)c3C2=O)cc1` [Methylophiopogonanone B], for the setting “mouse, in vivo, po”, the T1/2 turned out to be 6.5088 ± 1.6737 h and the Tmax came out at 2.5 ± 0 h.
